{"source": "patent US20200345686A1", "about": "“COMPOSITIONS AND METHODS FOR TREATING SKIN AND N[…] DISORDERS” (VCP IP HOLDINGS, LLC, LIMITED LIABILITY COMPANY DELAWARE, priority 2019, published 2020)", "key": {"[1]": {"settings": "mammals; cited from earlier work"}, "[2]": {"assay": "Tape-strip test of THC absorbance into pig skin after topical application of salve", "type": "in vitro ADME", "description": "A composition as described herein, e.g., in the form of a salve containing 1000 mg THC and carrier components was tested for its absorbance into skin following topical application to the skin of an animal (pig).\nThe absorbance testing procedure was performed as follows: the salve/lotion composition was applied topically to an area of the skin of a pig. Approximately 500 mg of the salve/lotion composition was applied to the area of skin using a gloved finger. The composition was applied to the skin by rubbing in a circular motion. The applied composition (salve composition) remained on the skin for different time periods, i.e., 10 minutes, 30 minutes, or 60 minutes, to allow the components of the composition, e.g., THC, to absorb into the skin. At the end of each time period, the area of the skin on which the composition had been applied was contacted with adhesive strips to test for the presence of residual cannabinoids, using an adhesive test tape (strip) method, e.g., as known in the art. (See, e.g., A. L. M. Ruela et al., 2016, BJPS, Vol. 52, No. 3:527-544; S. Zsiko et al., 2019, Sci. Pharm. (Review), Vol. 87, No. 19; doi:10.3390/scipharm87030019, 21 pages). In general, the tape-stripping technique is employed for analysis of penetration of an active or component (e.g., THC) into the stratum corneum. The procedure may be applied using an animal skin model, such as pig skin, e.g., a portion of skin removed from the animal. The procedure involved the sequence removal of cell layers of the stratum corneum by application of pieces (strips) of adhesive tape. The residues of the applied composition or formulation were removed from the skin surface, and the adhesive strip was applied by using pressure to ensure its adhesion to the skin. […]\nFIG. 1 illustrates the results of the time course experiment following absorption testing 10 minutes after the composition comprising 1000 mg THC+carrier ingredients was applied to the animal's skin. Absorption or permeation of THC (ppm) per layer of skin (20 skin layers deep) was assessed using adhesive test strips. […]"}, "[3]": {"settings": "one study; cited from earlier work"}, "[4]": {"molecular_target": "cannabinoid receptor type-2 (CB2) (Homo sapiens, UniProt P34972)", "sequence (P34972 whole entry, species assumed)": "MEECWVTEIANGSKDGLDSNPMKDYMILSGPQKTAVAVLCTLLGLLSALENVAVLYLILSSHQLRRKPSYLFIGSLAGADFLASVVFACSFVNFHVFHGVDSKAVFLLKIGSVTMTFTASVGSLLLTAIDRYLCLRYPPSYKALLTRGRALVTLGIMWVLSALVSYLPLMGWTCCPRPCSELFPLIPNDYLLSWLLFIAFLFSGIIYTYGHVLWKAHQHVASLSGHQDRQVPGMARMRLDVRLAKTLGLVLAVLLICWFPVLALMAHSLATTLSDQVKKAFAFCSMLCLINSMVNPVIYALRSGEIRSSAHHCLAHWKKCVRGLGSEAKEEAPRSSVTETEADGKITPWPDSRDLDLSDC", "settings": "cited from earlier work"}, "[5]": {"settings": "mice; cited from earlier work"}}, "data": [{"smiles": "C/C1=C\\CC/C(C)=C/CC(C)(C)/C=C/C1", "note": "[Humulene]", "values": [{"measurement": "anti-inflammatory activity", "setting": "[1]", "result": "effects similar to those of dexamethasone"}]}, {"smiles": "CCCCCc1cc(O)c2c(c1)OC(C)(C)[C@@H]1CCC(C)=C[C@@H]21", "note": "[THC, Δ^9-tetrahydrocannabinol]", "values": [{"measurement": "presence of cannabinoids in the skin layers beneath the stratum corneum", "setting": "[2]; 5 ppm limit of quantification (LOQ), pig skin tape strips", "result": "inability to detect the presence of cannabinoids"}, {"measurement": "location of THC component in skin", "setting": "[2]; 60 minutes after topical application, salve containing 1000 mg THC + carrier, pig skin", "result": "the majority of the THC component had entered the stratum corneum"}, {"measurement": "time after topical application at which absorption or penetration of THC into the skin was highest", "setting": "[2]; salve containing 1000 mg THC + carrier, approx. 500 mg applied to pig skin, 20 tape strips, HPLC", "result": "10 to 30", "unit": "min"}]}, {"smiles": "C=C(C)[C@@H]1CCC(C)=C[C@H]1c1c(O)cc(CCCCC)cc1O", "note": "[CBD, (−)-trans-cannabidiol]", "values": [{"measurement": "relieving pain and reducing inflammation compared with aspirin", "setting": "[3]", "result": "more effective than aspirin"}]}, {"smiles": "C=C1CCC=C(C)CCC2C1CC2(C)C", "note": "(stereo not shown) [Caryophyllene, 4,11,11-trimethyl-8-methylene-bicyclo[7.2.0]undec-4-ene]", "values": [{"measurement": "activity at CB2", "setting": "[4]", "result": "selective agonist"}, {"measurement": "anti-inflammatory effects", "setting": "[5]", "result": "significant cannabi-mimetic, anti-inflammatory effects"}]}]}
